Tests used:
hPAOX = hPAOX (Homo sapiens (Human), UniProt Q6QHF9); experiment: Human PAOX assay (HyPerBlu chemiluminescent detection of hydrogen peroxide); type: biochemical; conditions: 60 pM recombinant PAOX, 20 μM N-acetylspermine substrate
Protocol: (§1) The direct detection of hydrogen peroxide produced from the enzymatic reaction of hSMOX or hPAOX in a biochemical assay format was measured using HyPerBlu (Lumigen, Southfield, MI), a small molecule boronate probe that reacts with hydrogen peroxide to generate a chemiluminescent signal. Inhibition of hSMOX or hPAOX enzyme results in a decrease in luminescence.
The hPAOX assay was run and the data analyzed similarly to the hSMOX assay described above, except the reactions contained 60 pM recombinant PAOX with an N-terminal His tag expressed from sf9 insect cells and used 20 μM N-acetylspermine as the substrate.

SMOX = SMOX (Homo sapiens (Human), UniProt Q9NWM0); experiment: Human SMOX assay (HyPerBlu chemiluminescent detection of hydrogen peroxide); type: biochemical; conditions: 2.5 nM full length hSMOX, spermine substrate, 1 h at room temperature, luminescence read; read-out: SMOx_IC50
Protocol: as §1
Test compounds (75 nL) dissolved in DMSO were added to a 384-well white assay plate (Greiner Bio-one, catalog #784075) using an ECHO Acoustic Dispenser (Labcyte). Each compound was serially diluted 3-fold in DMSO to prepare an 11-point dose response curve (columns 1-22). Column 23 and 24 contained 75 nL of 2 mM chlorhexidine and DMSO, respectively, to represent the 100% inhibited versus the neutral control reactions.
Subsequently, 3 μL/well of the substrate solution prepared in assay buffer (10 mM Hepes, pH 7.4, 150 mM NaCl, 1 mM EGTA, 0.01% Pluronic F-127, 0.05% ovalbumin) was dispensed into the assay plate followed by 3 μL/well of full length hSMOX enzyme with an N-terminal His tag from E. coli prepared in assay buffer to initiate the reactions. After a 1 h incubation at room temperature, 6 μL/well of HyPerBlu was added. After a 30 min incubation, the hydrogen peroxide product generated from the hSMOX reactions was measured using an endpoint luminescence read on the PHERAStar FS/FSX microplate reader (BMG LABTECH).
The final assay conditions included 10 mM Hepes, pH 7.4, 150 mM NaCl, 1 mM EGTA, 0.01% Pluronic F-127, 0.05% ovalbumin, 2.5 nM hSMOX, 30 µM spermine, and 1.25% DMSO.
Dose-response curves were fit and compound IC50 values were determined using Genedata Screener (Genedata AG).

Sequence of SMOX (Q9NWM0 whole entry): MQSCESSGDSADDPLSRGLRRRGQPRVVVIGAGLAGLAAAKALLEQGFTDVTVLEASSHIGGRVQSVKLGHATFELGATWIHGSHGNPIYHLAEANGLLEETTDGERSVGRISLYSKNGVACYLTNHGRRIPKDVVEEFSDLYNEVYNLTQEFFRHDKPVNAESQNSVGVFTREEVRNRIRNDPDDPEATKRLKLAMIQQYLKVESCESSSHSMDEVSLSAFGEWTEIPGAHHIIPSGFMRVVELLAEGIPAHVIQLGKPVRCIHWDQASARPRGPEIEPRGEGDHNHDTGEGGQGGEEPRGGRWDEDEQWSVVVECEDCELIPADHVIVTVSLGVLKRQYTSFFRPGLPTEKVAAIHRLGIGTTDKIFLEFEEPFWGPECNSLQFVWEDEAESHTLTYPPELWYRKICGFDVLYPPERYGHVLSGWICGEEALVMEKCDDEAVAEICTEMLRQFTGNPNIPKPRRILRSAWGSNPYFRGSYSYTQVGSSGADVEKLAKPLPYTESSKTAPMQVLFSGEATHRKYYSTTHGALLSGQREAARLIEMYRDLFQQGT
Sequence of hPAOX (Q6QHF9 whole entry): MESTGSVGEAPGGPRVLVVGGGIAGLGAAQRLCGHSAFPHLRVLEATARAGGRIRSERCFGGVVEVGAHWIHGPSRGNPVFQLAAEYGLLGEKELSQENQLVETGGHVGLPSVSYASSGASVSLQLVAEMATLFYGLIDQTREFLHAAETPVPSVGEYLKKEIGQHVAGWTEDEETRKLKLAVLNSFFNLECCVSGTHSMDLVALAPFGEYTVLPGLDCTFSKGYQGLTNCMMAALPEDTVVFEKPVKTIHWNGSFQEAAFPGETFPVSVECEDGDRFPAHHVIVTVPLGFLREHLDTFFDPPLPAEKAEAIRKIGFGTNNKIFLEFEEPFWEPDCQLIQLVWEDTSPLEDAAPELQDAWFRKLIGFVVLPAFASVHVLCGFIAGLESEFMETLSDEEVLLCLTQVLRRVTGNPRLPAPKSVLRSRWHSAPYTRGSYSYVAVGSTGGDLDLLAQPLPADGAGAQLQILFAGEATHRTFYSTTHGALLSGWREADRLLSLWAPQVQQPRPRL

| Compound | IC50 (hPAOX) | IC50 (SMOX) |
| --- | --- | --- |
| CN1CCC(NC(=O)c2cc3nc(-c4ccccc4)cc(-c4ccccc4)n3n2)CC1 [Example 17, N-(1-Methylpiperidin-4-yl)-5,7-diphenylpyrazolo[1,5-a]pyrimidine-2-carboxamide] | 10400 nM | 606 nM |
| Cc1c(C(=O)NC2CN(C)C2)nn2c(-c3ccccc3)cc(-c3ccccc3)nc12 [Example 50, 3-Methyl-N-(1-methylazetidin-3-yl)-5,7-diphenylpyrazolo[1,5-a]pyrimidine-2-carboxamide] | 3130 nM | 110 nM |
| CN1CCC(NC(=O)c2nn3c(-c4ccccc4)cc(-c4ccccc4)nc3c2I)C1 (centres unmarked) [Example 47, 3-Iodo-N-(1-methylpyrrolidin-3-yl)-5,7-diphenylpyrazolo[1,5-a]pyrimidine-2-carboxamide] | 20600 nM | 125 nM |
| CN1CCN(c2cc(-c3ccccc3)nc3cc(C(=O)NCCCn4ccnc4)nn23)CC1 [Example 60, N-(3-(1H-Imidazol-1-yl)propyl)-7-(4-methylpiperazin-1-yl)-5-phenylpyrazolo[1,5-a]pyrimidine-2-carboxamide] | 24800 nM | > 31200 nM |
| O=C(NCCCn1ccnc1)c1cc2nc(-c3ccccc3)cc(NC3CCCC3)n2n1 [Example 65, N-(3-(1H-imidazol-1-yl)propyl)-7-(cyclopentylamino)-5-phenylpyrazolo[1,5-a]pyrimidine-2-carboxamide] | 2450 nM | 595 nM |
| CN1CC(N(C)C(=O)c2cc3nc(-c4ccccc4)cc(-c4ccccc4)n3n2)C1 [Example 45, N-Methyl-N-(1-methylazetidin-3-yl)-5,7-diphenylpyrazolo[1,5-a]pyrimidine-2-carboxamide] | 11600 nM | 1820 nM |
| CN(C)CCCNC(=O)c1cc2nc(-c3ccccc3)cc(N3CCCCC3)n2n1 [Example 70, N-(3-(dimethylamino)propyl)-5-phenyl-7-(piperidin-1-yl)pyrazolo[1,5-a]pyrimidine-2-carboxamide] | 3360 nM | 930 nM |
| O=C(NCCCc1cccnc1)c1cc2nc(-c3ccccc3)cc(-c3ccccc3)n2n1 [Example 31, 5,7-Diphenyl-N-(3-(pyridin-3-yl)propyl)pyrazolo[1,5-a]pyrimidine-2-carboxamide] | 2100 nM | 900 nM |
| CCN1CCC[C@H]1CNC(=O)c1cc2nc(-c3ccccc3)cc(-c3ccccc3)n2n1 [Example 14, (S)—N-((1-Ethylpyrrolidin-2-yl)methyl)-5,7-diphenylpyrazolo[1,5-a]pyrimidine-2-carboxamide] | 2440 nM | 401 nM |
| O=C(NC1CCN(Cc2ccccc2)C1)c1cc2nc(-c3ccccc3)cc(-c3ccccc3)n2n1 (centres unmarked) [Example 16, N-(1-Benzylpyrrolidin-3-yl)-5,7-diphenylpyrazolo[1,5-a]pyrimidine-2-carboxamide] | 4360 nM | 412 nM |
| O=C(NCCCc1ccncc1)c1cc2nc(-c3ccccc3)cc(-c3ccccc3)n2n1 [Example 9, 5,7-Diphenyl-N-(3-(pyridin-4-yl)propyl)pyrazolo[1,5-a]pyrimidine-2-carboxamide] | 1120 nM | 195 nM |
| CN(C)CCN(C)C(=O)c1cc2nc(-c3ccccc3)cc(-c3ccccc3)n2n1 [Example 44, N-(2-(Dimethylamino)ethyl)-N-methyl-5,7-diphenylpyrazolo[1,5-a]pyrimidine-2-carboxamide] | > 31200 nM | 7340 nM |
| CC(C)N1CCC(NC(=O)c2cc3nc(-c4ccccc4)cc(-c4ccccc4)n3n2)C1 (centres unmarked) [Example 4, N-(1-Isopropylpyrrolidin-3-yl)-5,7-diphenylpyrazolo[1,5-a]pyrimidine-2-carboxamide] | 8720 nM | 599 nM |
| CN1CC[C@@H](NC(=O)c2cc3nc(-c4ccccc4)cc(-c4ccccc4)n3n2)C1 [Example 8, (R)—N-(1-Methylpyrrolidin-3-yl)-5,7-diphenylpyrazolo[1,5-a]pyrimidine-2-carboxamide] | 10700 nM | 393 nM |
| O=C(NC1CCCC(n2ccnc2)C1)c1cc2nc(-c3ccccc3)cc(-c3ccccc3)n2n1 (centres unmarked) [Example 37, N-(3-(1H-Imidazol-1-yl)cyclohexyl)-5,7-diphenylpyrazolo[1,5-a]pyrimidine-2-carboxamide] | 12600 nM | 878 nM |
| CN1CC[C@H](NC(=O)c2cc3nc(-c4ccccc4)cc(-c4ccccc4)n3n2)C1 [Example 7, (S)—N-(1-Methylpyrrolidin-3-yl)-5,7-diphenylpyrazolo[1,5-a]pyrimidine-2-carboxamide] | 1330 nM | 712 nM |

Results, then the molecule that gave them:

| IC50 (hPAOX) | IC50 (SMOX) | Compound |
| --- | --- | --- |
| 1940 nM | 1630 nM | CC(C)Cc1cc(-c2ccccc2)nc2cc(C(=O)NCCCn3ccnc3)nn12 [Example 112, N-(3-(1H-imidazol-1-yl)propyl)-7-isobutyl-5-phenylpyrazolo[1,5-a]pyrimidine-2-carboxamide] |
| 641 nM | 416 nM | O=C(NCC1CCNC1)c1cc2nc(-c3ccccc3)cc(-c3ccccc3)n2n1 (centres unmarked) [Example 121, 5,7-diphenyl-N-(pyrrolidin-3-ylmethyl)pyrazolo[1,5-a]pyrimidine-2-carboxamide] |
| 818 nM | 681 nM | Cc1ccc(-c2cc(-c3ccccc3)nc3cc(C(=O)NCCCn4ccnc4)nn23)cc1 [Example 83, N-(3-(1H-imidazol-1-yl)propyl)-5-phenyl-7-(p-tolyl)pyrazolo[1,5-a]pyrimidine-2-carboxamide] |
| 103 nM | 230 nM | CNCCCNC(=O)c1cc2nc(-c3ccccc3)cc(-c3ccccc3)n2n1 [Example 118, N-(3-(methylamino)propyl)-5,7-diphenylpyrazolo[1,5-a]pyrimidine-2-carboxamide] |
| 666 nM | 114 nM | CN1CC(NC(=O)c2cc3nc(-c4cccc(F)c4)cc(-c4ccccc4)n3n2)C1 [Example 105, 5-(3-fluorophenyl)-N-(1-methylazetidin-3-yl)-7-phenylpyrazolo[1,5-a]pyrimidine-2-carboxamide] |
| 213 nM | 282 nM | O=C(NC1CNC1)c1cc2nc(-c3ccccc3)cc(-c3ccccc3)n2n1 [Example 115, N-(azetidin-3-yl)-5,7-diphenylpyrazolo[1,5-a]pyrimidine-2-carboxamide] |
| 181 nM | 72 nM | O=C(NCCCn1ccnc1)c1cc2nc(-c3ccc(C(F)(F)F)cc3)cc(-c3ccccc3)n2n1 [Example 101, N-(3-(1H-imidazol-1-yl)propyl)-7-phenyl-5-(4-(trifluoromethyl)phenyl)pyrazolo[1,5-a]pyrimidine-2-carboxamide] |
| 2070 nM | > 31200 nM | CC(=O)Nc1ccc(-c2cc(-c3ccccc3)nc3cc(C(=O)NCCCn4ccnc4)nn23)cc1 [Example 95, N-(3-(1H-imidazol-1-yl)propyl)-7-(4-acetamidophenyl)-5-phenylpyrazolo[1,5-a]pyrimidine-2-carboxamide] |
| 2370 nM | 812 nM | Cn1ccc(-c2cc(-c3ccccc3)nc3cc(C(=O)NCCCn4ccnc4)nn23)n1 [Example 85, N-(3-(1H-imidazol-1-yl)propyl)-7-(1-methyl-1H-pyrazol-3-yl)-5-phenylpyrazolo[1,5-a]pyrimidine-2-carboxamide] |
| 3070 nM | 1750 nM | O=C(NCCCn1ccnc1)c1cc2nc(-c3ccccc3)cc(C3CCCO3)n2n1 (centres unmarked) [Example 110, N-(3-(1H-imidazol-1-yl)propyl)-5-phenyl-7-(tetrahydrofuran-2-yl)pyrazolo[1,5-a]pyrimidine-2-carboxamide] |
| 5370 nM | 725 nM | CN1CC(NC(=O)c2cc3nc(-c4ccccc4)cc(Oc4ccccc4)n3n2)C1 [Example 76, N-(1-methylazetidin-3-yl)-7-phenoxy-5-phenylpyrazolo[1,5-a]pyrimidine-2-carboxamide] |
| 544 nM | 519 nM | CC(=O)Nc1cccc(-c2cc(-c3ccccc3)nc3cc(C(=O)NCCCn4ccnc4)nn23)c1 [Example 77, N-(3-(1H-imidazol-1-yl)propyl)-7-(3-acetamidophenyl)-5-phenylpyrazolo[1,5-a]pyrimidine-2-carboxamide] |
| 1400 nM | 1290 nM | CN1CC(NC(=O)c2cc3nc(-c4ccccc4F)cc(-c4ccccc4)n3n2)C1 [Example 104, 5-(2-fluorophenyl)-N-(1-methylazetidin-3-yl)-7-phenylpyrazolo[1,5-a]pyrimidine-2-carboxamide] |
| – | 242 nM | COc1ccc(-c2cc(-c3ccccc3)nc3cc(C(=O)NCCCn4ccnc4)nn23)cc1 [Example 79, N-(3-(1H-imidazol-1-yl)propyl)-7-(4-methoxyphenyl)-5-phenylpyrazolo[1,5-a]pyrimidine-2-carboxamide] |
